Key:
Drosophila melanogaster = assay: Somatic mutation and recombination test (SMART, wing spot test); format: in vivo; parameters: key to Statistical diagnosis vs DI (negative control), Small Single (1–2 Cells) / Statistical diagnosis vs DI (negative control), Large Single (>2 Cells) / Statistical diagnosis vs DI (negative control), Twin / Statistical diagnosis vs DI (negative control), Total Spots: + = positive; − = negative; i = inconclusive; details: for Frequency of Mutant Spots per Individual (Number of Spots), Large Single (>2 Cells) / Frequency of Mutant Spots per Individual (Number of Spots), Small Single (1–2 Cells) / Frequency of Mutant Spots per Individual (Number of Spots), Total Spots / Frequency of Mutant Spots per Individual (Number of Spots), Twin: 40 wings
Experimental: In brief, two strains of fruit flies, including mwh/mwh and ORR; flr^3/In(3LR) TM3, ri p^p sep l(3)89Aa bx^34e e Bd^S, were mated. […] After hatching, forty round wings were collected and analyzed for mutant spots (single, large, and twin spots). The statistical analysis for the wing spot test was performed as previously described. The Drosophila study was approved by the Institute of Nutrition—Mahidol University Institutional Animal Care and Use Committee (INMU-IACUC) (COA. No. INMU-IACUC 2023/01).

Hemolysis assay = format: cell-based, human; details: human, 5% red blood cell suspension; 800 µg/mL, 5% RBCs, 37 °C, 3 h; read-out: % Hemolysis (n = 5)
From the text: As described by Karinchai et al., human peripheral blood mononuclear cells (PBMCs) and red blood cells (RBCs) were isolated from human blood samples [41]. Human blood samples of healthy subjects obtained from Maharaj Hospital, Chiang Mai, Thailand, were anonymized and kept in a heparinized tube by the laboratory. RBCs were collected and used to determined hemolysis induction by a hemolysis assay. Ficoll-Hypaque solution was used to isolate PBMCs, as described in the manufacturer’s instructions. A certificate of exemption by the Research Ethics Committee of the Faculty of Medicine, Chiang Mai University (No. EXEMPTION 8989/2022), was granted. Consent to participate was not applicable as all data were anonymized. All methods were carried out in accordance with relevant guidelines and regulations.
The hemolytic effect of the oligopeptide and its conjugated forms was determined by hemolysis assay. Briefly, the 5% RBCs suspension was mixed with various concentrations of the samples and further incubated at 37 °C for 3 h. The hemolysis induction by the compounds was measured as described previously. The hemolytic effect of each compound was interpreted using the following guidelines: 0–10% hemolysis is non-hemolysis, 10–25% hemolysis is slight hemolysis induction, and >25% hemolysis is high hemolysis induction.

3T3-L1 Mature-adipocytes = assay: SRB cytotoxicity assay, 3T3-L1 mature adipocytes; format: cell-based, murine; details: 48 h
Experimental: (§1) The pre-adipocyte 3T3-L1 cell line was differentiated to become mature adipocytes by culturing the cells to 100% confluence in 10% calf serum DMEM (CS medium), as Day 0 in a 96 well-plate. After post-confluence, the cells were incubated with the induction medium as a differentiation initiation medium (DMEM […] 1 μM DEX, 0.5 mM IBMX, 167 nM insulin, and 10% FBS) for 3 days (Days 1–3). After that, cells were cultured in a differentiation medium as an adipogenic differentiation medium (differentiation media: DMEM containing 167 nM insulin and 10% FBS) for 3 days (Days 4–6). Finally, maturation was induced in an induced-lipid accumulation medium (maturation media: DMEM containing 167 nM insulin and 10% FBS) for 6 days (Days 7–12). The mature adipocytes were then used for toxicity testing.
(§2) The cytotoxicity of the oligopeptide and its conjugated forms on HepG2, HEK293, LX-2, and RAW 264.7 cells, pre- and mature 3T3-L1 adipocytes, and hPBMCs was analyzed by a sulforhodamine (SRB) assay to obtain their non-toxic concentration for further experiments and as screening data for their in vitro safety. The cells were plated for 12 h in 96-well plates and then treated with the oligopeptide and its conjugated sugar at a concentration of 0–1000 µg/mL for 48 h. Dimethyl sulfoxide (DMSO) was used as a vehicle control (the untreated control). At the indicated time, the cells were then fixed and subjected to an SRB assay. The absorbance was measured at 510 nm by spectrophotometry (Gen5, BioTek, Winooski, VT, USA), and the cell viability was calculated as the ratio of the treatment versus untreated control. The data are represented as the mean ± standard deviation of three replicates and are expressed relative to the untreated control. The percentage of cell survival was calculated as follows:% cell survival = (Abs_extract/Abs_control) × 100

[1] = SRB cytotoxicity assay, 3T3-L1 mature adipocytes; format: cell-based, murine; details: mouse; 3T3-L1 Mature-adipocytes, 48 h, SRB
Experimental: as §1, §2

[2] = SRB cytotoxicity assay, RAW 264.7; details: mouse
Experimental: (§3) The cells were maintained in a 5% CO2 humidified atmosphere (CO2 incubator, Thermo Scientific, Waltham, MA, USA) at 37 °C and sub-cultured every 3 days.
as §2

[3] = system: RAW 264.7 murine macrophage cell line; assay: SRB cytotoxicity assay, RAW 264.7; details: Mus musculus, RAW264.7, 48 h
Experimental: as §3, §2

SMILES: OC[C@H]1OC(O)[C@@H](O)[C@@H](O)[C@@H]1O (stereo partly drawn) [Man, D-mannose]
- Statistical diagnosis vs DI (negative control), Large Single (>2 Cells) (Drosophila melanogaster; 62.5 µg/mL): i
- Statistical diagnosis vs DI (negative control), Small Single (1–2 Cells) (Drosophila melanogaster; 62.5 µg/mL): −
- Statistical diagnosis vs DI (negative control), Twin (Drosophila melanogaster; 62.5 µg/mL): −
- Frequency of Mutant Spots per Individual (Number of Spots), Large Single (>2 Cells) (Drosophila melanogaster; 62.5 µg/mL): 0.03 (1)
- Frequency of Mutant Spots per Individual (Number of Spots), Small Single (1–2 Cells) (Drosophila melanogaster; 62.5 µg/mL): 0.40 (16)
- Frequency of Mutant Spots per Individual (Number of Spots), Total Spots (Drosophila melanogaster; 62.5 µg/mL): 0.43 (17)
- Frequency of Mutant Spots per Individual (Number of Spots), Twin (Drosophila melanogaster; 62.5 µg/mL): 0.00 (0)
- Statistical diagnosis vs DI (negative control), Large Single (>2 Cells) (Drosophila melanogaster; 125 µg/mL): i
- Statistical diagnosis vs DI (negative control), Small Single (1–2 Cells) (Drosophila melanogaster; 125 µg/mL): −
- Statistical diagnosis vs DI (negative control), Total Spots (Drosophila melanogaster; 125 µg/mL): −
- Statistical diagnosis vs DI (negative control), Twin (Drosophila melanogaster; 125 µg/mL): −
- Frequency of Mutant Spots per Individual (Number of Spots), Large Single (>2 Cells) (Drosophila melanogaster; 125 µg/mL): 0.03 (1)
- Frequency of Mutant Spots per Individual (Number of Spots), Small Single (1–2 Cells) (Drosophila melanogaster; 125 µg/mL): 0.50 (20)
- Frequency of Mutant Spots per Individual (Number of Spots), Total Spots (Drosophila melanogaster; 125 µg/mL): 0.53 (21)
- Frequency of Mutant Spots per Individual (Number of Spots), Twin (Drosophila melanogaster; 125 µg/mL): 0.00 (0)
- Statistical diagnosis vs DI (negative control), Large Single (>2 Cells) (Drosophila melanogaster; 250 µg/mL): i
- Statistical diagnosis vs DI (negative control), Small Single (1–2 Cells) (Drosophila melanogaster; 250 µg/mL): −
- Statistical diagnosis vs DI (negative control), Total Spots (Drosophila melanogaster; 250 µg/mL): −
- Statistical diagnosis vs DI (negative control), Twin (Drosophila melanogaster; 250 µg/mL): −
- Frequency of Mutant Spots per Individual (Number of Spots), Large Single (>2 Cells) (Drosophila melanogaster; 250 µg/mL): 0.03 (1)
- Frequency of Mutant Spots per Individual (Number of Spots), Small Single (1–2 Cells) (Drosophila melanogaster; 250 µg/mL): 0.43 (17)
- Frequency of Mutant Spots per Individual (Number of Spots), Total Spots (Drosophila melanogaster; 250 µg/mL): 0.45 (18)
- Frequency of Mutant Spots per Individual (Number of Spots), Twin (Drosophila melanogaster; 250 µg/mL): 0.00 (0)
- Statistical diagnosis vs DI (negative control), Large Single (>2 Cells) (Drosophila melanogaster; 500 µg/mL): i
- Statistical diagnosis vs DI (negative control), Small Single (1–2 Cells) (Drosophila melanogaster; 500 µg/mL): −
- Statistical diagnosis vs DI (negative control), Total Spots (Drosophila melanogaster; 500 µg/mL): −
- Statistical diagnosis vs DI (negative control), Twin (Drosophila melanogaster; 500 µg/mL): −
- Frequency of Mutant Spots per Individual (Number of Spots), Large Single (>2 Cells) (Drosophila melanogaster; 500 µg/mL): 0.03 (1)
- Frequency of Mutant Spots per Individual (Number of Spots), Small Single (1–2 Cells) (Drosophila melanogaster; 500 µg/mL): 0.25 (10)
- Frequency of Mutant Spots per Individual (Number of Spots), Total Spots (Drosophila melanogaster; 500 µg/mL): 0.28 (11)
- Frequency of Mutant Spots per Individual (Number of Spots), Twin (Drosophila melanogaster; 500 µg/mL): 0.00 (0)
- Statistical diagnosis vs DI (negative control), Large Single (>2 Cells) (Drosophila melanogaster; 1000 µg/mL): i
- Statistical diagnosis vs DI (negative control), Small Single (1–2 Cells) (Drosophila melanogaster; 1000 µg/mL): −
- Statistical diagnosis vs DI (negative control), Total Spots (Drosophila melanogaster; 1000 µg/mL): −
- Statistical diagnosis vs DI (negative control), Twin (Drosophila melanogaster; 1000 µg/mL): −
- Frequency of Mutant Spots per Individual (Number of Spots), Large Single (>2 Cells) (Drosophila melanogaster; 1000 µg/mL): 0.03 (1)
- Frequency of Mutant Spots per Individual (Number of Spots), Small Single (1–2 Cells) (Drosophila melanogaster; 1000 µg/mL): 0.25 (10)
- Frequency of Mutant Spots per Individual (Number of Spots), Total Spots (Drosophila melanogaster; 1000 µg/mL): 0.28 (11)
- Frequency of Mutant Spots per Individual (Number of Spots), Twin (Drosophila melanogaster; 1000 µg/mL): 0.00 (0)
- Statistical diagnosis vs DI (negative control), Large Single (>2 Cells) (Drosophila melanogaster; 2000 µg/mL): −
- Statistical diagnosis vs DI (negative control), Small Single (1–2 Cells) (Drosophila melanogaster; 2000 µg/mL): −
- Statistical diagnosis vs DI (negative control), Total Spots (Drosophila melanogaster; 2000 µg/mL): −
- Statistical diagnosis vs DI (negative control), Twin (Drosophila melanogaster; 2000 µg/mL): −
- Frequency of Mutant Spots per Individual (Number of Spots), Large Single (>2 Cells) (Drosophila melanogaster; 2000 µg/mL): 0.00 (0)
- Frequency of Mutant Spots per Individual (Number of Spots), Small Single (1–2 Cells) (Drosophila melanogaster; 2000 µg/mL): 0.23 (9)
- Frequency of Mutant Spots per Individual (Number of Spots), Total Spots (Drosophila melanogaster; 2000 µg/mL): 0.23 (9)
- Frequency of Mutant Spots per Individual (Number of Spots), Twin (Drosophila melanogaster; 2000 µg/mL): 0.00 (0)
- Statistical diagnosis vs DI (negative control), Large Single (>2 Cells) (Drosophila melanogaster; 5000 µg/mL): −
- Statistical diagnosis vs DI (negative control), Small Single (1–2 Cells) (Drosophila melanogaster; 5000 µg/mL): −
- Statistical diagnosis vs DI (negative control), Total Spots (Drosophila melanogaster; 5000 µg/mL): −
- Statistical diagnosis vs DI (negative control), Twin (Drosophila melanogaster; 5000 µg/mL): −
- Frequency of Mutant Spots per Individual (Number of Spots), Large Single (>2 Cells) (Drosophila melanogaster; 5000 µg/mL): 0.00 (0)
- Frequency of Mutant Spots per Individual (Number of Spots), Small Single (1–2 Cells) (Drosophila melanogaster; 5000 µg/mL): 0.18 (7)
- Frequency of Mutant Spots per Individual (Number of Spots), Total Spots (Drosophila melanogaster; 5000 µg/mL): 0.18 (7)
- Frequency of Mutant Spots per Individual (Number of Spots), Twin (Drosophila melanogaster; 5000 µg/mL): 0.00 (0)
- DNA mutations / genome safety (Drosophila melanogaster; all doses, up to 5000 µg/mL): did not trigger DNA mutations
- hemolysis at 3 h, 800 µg/mL (Hemolysis assay): 1.84 ± 0.42%
- IC50 (3T3-L1 Mature-adipocytes; Mus musculus, 3T3-L1 Mature-adipocytes, SRB, read-out: IC50): > 1000 mg/L
- toxicity to cells (3T3-L1 Mature-adipocytes; mature-3T3-L1, up to 1000 µg/mL): not toxic
- IC20 at 48 h [1]: > 1000 mg/L
- IC20 at 48 h [2]: > 1000 mg/L
- IC50 [3]: > 1000 mg/L
